In general, IC50 refers to the midpoint of a concentration-inhibition curve.

Data set [1] is described as follows: Antiproliferative activity against human ALL5 cells assessed as reduction in cell viability incubated for 120 hrs by MTT assay. In kind it is functional, cell-based. As to conditions: ALL5, 120 h. In general terms: Tetrazolium dyes change colour on reduction, which living cells bring about.
The subject of data set [2] is A549. As to the kind of experiment: Antiproliferative activity against human A549 cells assessed as reduction in cell viability incubated for 120 hrs by MTT assay. Type of data set: functional, cell-based. As to conditions: A549, 120 h.
For data set [3], the system named is MCF7. As to the kind of experiment: Antiproliferative activity against human MCF7 cells assessed as reduction in cell viability incubated for 120 hrs by MTT assay. As to conditions: MCF7, 120 h. Type of data set: functional, cell-based.
The test system of data set [4] is LoVo. The data set can be described thus: Antiproliferative activity against human LoVo cells assessed as reduction in cell viability incubated for 120 hrs by MTT assay. Type of data set: functional, cell-based.
Data set [5] is described as follows: Antiproliferative activity against human LoVo/DX cells assessed as reduction in cell viability incubated for 120 hrs by MTT assay. In kind it is functional, cell-based.
For data set [6], the system named is BALB/3T3. The data set can be described thus: Antiproliferative activity against mouse BALB/3T3 cells assessed as reduction in cell viability incubated for 120 hrs by MTT assay. In kind it is cell-based. Particulars: BALB/3T3, 120 h.
The nature of data set [7]: Selectivity index, ratio of IC50 of mouse BALB/3T3 cells to IC50 of human ALL5 cells.
Data set [8] in a line: Selectivity index, ratio of IC50 of mouse BALB/3T3 cells to IC50 of human A549 cells.
Data set [9] in a line: Selectivity index, ratio of IC50 of mouse BALB/3T3 cells to IC50 of human MCF7 cells. In kind it is toxicity. As to conditions: BALB/3T3 cells versus MCF7 cells, read-out: Ratio IC50.
A short description of data set [10]: Selectivity index, ratio of IC50 of mouse BALB/3T3 cells to IC50 of human LoVo cells. Type of data set: toxicity. Particulars: BALB/3T3 cells versus LoVo cells, read-out: Ratio IC50.
Data set [11] is described as follows: Selectivity index, ratio of IC50 of mouse BALB/3T3 cells to IC50 of human LoVo/DX cells. In kind it is toxicity. As to conditions: BALB/3T3 cells versus LoVo/DX cells, read-out: Ratio IC50.
Data set [12] in a line: Resistance index, ratio of IC50 of human LoVo/DX cells to IC50 of human LoVo cells. Type of data set: functional.
For data set [13], the species on record is Homo sapiens. The data set can be described thus: Induction of cell cycle arrest in human ALL5 cells assessed as increase in 4 N DNA at 5 times of antiproliferative IC50 incubated for 24 hrs by propidium iodide based flow cytometry. Type of data set: functional. Background: In flow cytometry, cells or beads pass a laser one at a time.
The species entered for data set [14] is Homo sapiens. As to the kind of experiment: Induction of cell cycle arrest in human ALL5 cells assessed as increase in 4 N DNA at 5 times of antiproliferative IC50 incubated for 48 hrs by propidium iodide based flow cytometry. Type of data set: functional.
The species entered for data set [15] is Homo sapiens. As to the kind of experiment: Induction of cell death in human ALL5 cells assessed as decrease in 4 N DNA at 5 times of antiproliferative IC50 incubated for 72 hrs by propidium iodide based flow cytometry. In kind it is functional.

Active and inactive are the calls of the source. The calls are words filed in the database; no cut-off is given here.

Consider `COc1c(Br)c2c(c(OC)c1OC)-c1ccc(SC)c(=O)cc1[C@@H](N)CC2`, for which the IC50 in data set [1] turned out to be 91.4 nM; in [2], 115 nM; in data set [3], 178 nM; in [4] it was 125 nM; in data set [5], 700 nM; in data set [6] it was 1260 nM. Further, the “Ratio IC50” value in [7] is given as 13.8; in data set [8] it was 11; in data set [12], 5.6. The values for the selectivity ratio in [9], in data set [10] and in data set [11] were 7.1, 10.1 and 1.8, respectively. In addition, the outcome in data set [13], in [14] and in data set [15] was Active.
